Tests used:
[1] = system: Hana3A cells expressing Olfr111; experiment: Boyden chamber chemotaxis assay, Hana3A cells expressing Olfr111; type: cell-based; settings: 2-PF 10, 100 and 1000 μM
Description: Chemotaxis was measured using a multi-well Boyden chamber. More specifically, a polycarbonate filter (8 μm pore; #101-8; Neuroprobe) was coated with […] fibronectin (Sigma-Aldrich) in PBS for 2 hours, and the coated filter was installed in a Boyden chamber. In addition, the bottom side of a plate was filled with serum-free DMEM containing 2-PF or a culture supernatant. Subsequently, microglia or Hana3A cells were transfected with an OR construct, and then suspended in serum-free DMEM. The microglia were kept at 37° C. for 4 hours, and the Hana3A cells for 8 hours. Cells that migrated to the bottom surface were fixed with 4% PFA, and stained with hematoxylin for 10 minutes. The migrated cells were counted under a light microscope in five randomly selected fixed […] fields (200×) using a scored eyepiece. A chemotaxis index was defined as the migrated cell number normalized against the untreated group.

primary microglia = experiment: Western blotting of phosphorylated signaling proteins in primary microglia; type: cell-based, mouse; settings: 0-30 min after treatment
Description: Cells and tissue were prepared using the T-PER® reagent (#78510; Thermo Fisher Scientific) containing protease inhibitors (#04-693-116-001; Roche Molecular Diagnostics) and DMSF (Sigma-Aldrich), and then lysed using a MagNA lyser (Roche Molecular Diagnostics). A total protein extract was quantified by the Bradford assay. The samples were dissolved in 7.5% SDS-PAGE or 4-20% gradient mini-PROTEIN TGX Precast Gels (#456-1064; Bio-Rad Laboratories), and then blotted on nitrocellulose membranes (#10600002; GE Healthcare). Afterward, the membranes were blocked for 1 hour in 5% non-fat dry milk and TBST, 0.1% TWEEN® 20 (#P9416; Sigma-Aldrich), and Tris-buffered saline, and then incubated with primary antibodies at 4° C. overnight. The antibodies were as follows: Olfr110 (36 kDa; 1:1,000; #ab177327; Abcam), anti-rhodopsin (39 kDa; 1:1,000; #MABN15; Millipore), CREB (43 kDa; 1:1,000; #9197; Cell Signaling Technology), phospho-CREB (43 kDa; 1:1,000; #9198; Cell Signaling Technology), ERK (44 kDa; 1:1,000; #sc094; Santa Cruz), phospho-ERK (42, 44 kDa; 1:1,000; #sc-7383; Santa Cruz), phospho-Akt (60 kDa; 1:500; sc-293125; Santa Cruz), phospho-JNK (46, 54 kDa; 1:500; sc-6254; Santa Cruz), phosphor-p38 (38 kDa; 1:1,000; sc-7973; Santa Cruz), and beta-Actin (45 kDa; 1:10,000; #4967; Cell Signaling Technology). In addition, as isotype-matched horseradish peroxidase-conjugated secondary antibodies, anti-rabbit IgG (#711-035-152; Jackson ImmunoResearch) diluted 1:100,000, and anti-mouse IgG (#715-035-150; Jackson ImmunoResearch) diluted 1:40,000 in TBST were used at room temperature for 2 hours. Immunoreactive protein bands were obtained using SuperSignal™ West Pico Chemiluminescent Substrate (#34080; Thermo Fisher Scientific).

Olfr110 = experiment: Immunostaining of Olfr110 expression after treatment; type: cell-based, mouse
Description: Subsequently, cells were washed in PBS, and fixed with 4% paraformaldehyde (#6148; Sigma Aldrich) for 5 minutes. The cells were then incubated in PBS containing 4% normal horse serum (#008-000-121; Jackson ImmunoResearch) and 0.1% TWEEN® 20 (#P9416; Sigma-Aldrich) at room temperature for 1 hour. Afterward, the cells were […] at 4° C. overnight with primary antibodies listed below. The antibodies are as follows: Olfr110 (rabbit-anti-Olfr110; 1:10,000; #ab177327; Abcam), Iba-1 (goat-anti-Iba-1; 1:1,000; #ab5076; Abcam), and GFAP (mouse-anti-GFAP; 1:1,000; #556330; BD Biosciences). Samples were incubated in a PBS solution containing 0.1% TWEEN® 20 (#P9416; Sigma-Aldrich) with secondary antibodies at room temperature for 1 hour. The secondary antibodies are as follows: Cy3-conjugated donkey anti-rabbit IgG (1:1,000; #711-165-152; Jackson ImmunoResearch), Alexa488-conjugated donkey anti-goat IgG (1:1,000; #705-545-147; Jackson ImmunoResearch), and Alexa488-conjugated donkey anti-mouse IgG (1:1,000; #715-545-150; Jackson ImmunoResearch). Afterward, the cells were mounted with a Vectashield fluorescent material containing DAPI (#H-1200; Vector Laboratories), and images were obtained using a confocal laser scanning microscope, LSM 700, and the ZEN software (Zeiss). […]

Olfr110 F104W mutation = biological target: T1, Olfr110 F104W mutation (Mus musculus, UniProt A2RT31, F104W); experiment: Luciferase assay with site-directed Olfr110 mutants; type: cell-based; settings: 2-PF treatment
T1 construct: Full-length odorant receptor genes from mouse and human genomic DNAs were amplified using appropriate primers; Lucy (N); Flag (N); Rho (N); expressed in transfected cells; host or cells: Hana3A cells
T1 sequence (A2RT31 1-317 F104W): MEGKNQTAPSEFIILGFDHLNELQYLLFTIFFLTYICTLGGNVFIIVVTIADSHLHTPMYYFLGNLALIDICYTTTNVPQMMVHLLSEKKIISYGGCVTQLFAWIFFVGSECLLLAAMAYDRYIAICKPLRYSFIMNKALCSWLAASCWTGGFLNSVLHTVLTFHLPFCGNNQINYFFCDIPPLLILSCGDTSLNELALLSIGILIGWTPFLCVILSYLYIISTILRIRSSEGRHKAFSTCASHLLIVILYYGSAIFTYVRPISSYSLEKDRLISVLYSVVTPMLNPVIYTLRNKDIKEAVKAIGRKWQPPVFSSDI
Description: Specific mutant vectors of the Olfr110 structure were generated using PfuUltra High-Fidelity DNA polymerase (#600380; Agilent Technologies). All mutant vectors (F102W; F104W; Y252F; Y259F; F102W/F104W; Y252F/Y259F; F102W/Y252F/Y259F; F104W/Y252F/Y259F; F102W/F104W/Y252F/Y259F) were sequenced in forward and reverse directions (Macrogen).

## CCCCCc1ccco1 [2-PF, 2-pentylfuran]
[1]
  mobility of Olfr111 cells (chemotaxis assay): increased in mobility in a concentration-dependent manner
Primary microglia
  phosphorylation levels of ERK, p38, JNK and Akt: increased from 2 minutes and stopped increasing at 20 minutes
Olfr110
  Olfr110 protein level: significantly increases
Olfr110 F104W mutation
  luciferase activity of Olfr110 F104W mutant: completely lost

From patent US12265087B2, “Olfactory receptor as microglia marker and use thereof” (DAEGU GYEONGBUK INSTITUTE OF SCIENCE AND TECHNOLOGY, priority 2019, dated 2025)
